# In US20060069132A1, “Azolecarboxamide herbicides” (priority 2004, published 2006):
# Assays:
# giant foxtail [1] = experiment: Test A pre-/postemergence herbicide test; format: in vivo, Setaria faberi
# How it was run: (§1)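 Visual injury scores on a 0–100 scale (100 = complete control) taken about ten days post-treatment in greenhouse against untreated controls; dash means no result. Treatments: preemergence soil spray and postemergence spray to runoff on one- to two-leaf plants 2 to 10 cm tall, surfactant-containing formulation.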
# redroot pigweed = experiment: Test A pre-/postemergence herbicide test; format: in vivo, Amaranthus retroflexus
# How it was run: as §1
# bermudagrass = experiment: Test C pre-/postemergence herbicide test; format: in vivo, Cynodon dactylon; settings: for Bermudagrass plant response rating: 500 g ai/ha
# How it was run: (§2)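 Visual ratings on a 0–100 scale (100 = complete control) made versus untreated controls after 12 to 14 greenhouse days. Test chemicals, formulated in surfactant-containing non-phytotoxic solvent, applied preemergence to planted seeds or postemergence to 1- to 4-leaf plants (2 to 18 cm).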
# large crabgrass = experiment: Test C pre-/postemergence herbicide test; format: in vivo, Digitaria sanguinalis; settings: for Crabgrass, Large plant response rating: 500 g ai/ha
# How it was run: as §2
# woolly cupgrass = experiment: Test C pre-/postemergence herbicide test; format: in vivo, Eriochloa villosa; settings: for Cupgrass, Woolly plant response rating: 500 g ai/ha
# How it was run: as §2
# giant foxtail [2] = experiment: Test C pre-/postemergence herbicide test; format: in vivo, Setaria faberi; settings: for Foxtail, Giant plant response rating: 500 g ai/ha
# How it was run: as §2
# goosegrass = experiment: Test C pre-/postemergence herbicide test; format: in vivo, Eleusine indica; settings: for Goosegrass plant response rating: 500 g ai/ha
# How it was run: as §2
# pigweed = experiment: Test C pre-/postemergence herbicide test; format: in vivo, Amaranthus retroflexus; settings: for Pigweed plant response rating: 500 g ai/ha
# How it was run: as §2
# [3] = Postemergence, 500 g ai/ha, 0 to 100 scale, 0 no effect, 100 complete control
# [4] = Postemergence, 2000 g ai/ha, 0 to 100 scale, 0 no effect, 100 complete control
# [5] = Preemergence, 500 g ai/ha, visual rating, 0 to 100 scale (0 no effect, 100 complete control)
# [6] = Preemergence, 2000 g ai/ha, 0 to 100 scale, 0 no effect, 100 complete control
# [7] = 125 g ai/ha, scale 0 (no effect) to 100 (complete control), visual, 12 to 14 days, preemergence
# [8] = 250 g ai/ha, scale 0 to 100 (0 no effect, 100 complete control), visual, 12 to 14 days, preemergence
# [9] = Postemergence, 125 g ai/ha, scale 0 to 100, 0 no effect, 100 complete control
# [10] = Preemergence, scale 0 to 100, 0 no effect, 100 complete control
# [11] = Postemergence, 250 g ai/ha, scale 0 to 100, 0 no effect, 100 complete control
# [12] = postemergence, 62 g ai/ha, scale 0 to 100
# [13] = Preemergence, 2000 g ai/ha, visual rating, 0 to 100 scale (0 no effect, 100 complete control)
# [14] = preemergence, 500 g ai/ha, visual injury, 0 to 100 scale (0 no effect, 100 complete control)
# [15] = postemergence, 125 g ai/ha, scale 0 to 100
# [16] = 250 g ai/ha, scale 0-100, preemergence
# [17] = 62 g ai/ha, preemergence, scale 0 to 100
compound,measurement,setting,value
C=CCNC(=O)c1cccc(NC(=O)c2cc(C(C)(C)C)nn2CC)c1 [Compound 46],"Plant response rating, Foxtail, Giant",giant foxtail [1]; [3],80
same,"Plant response rating, Foxtail, Giant",giant foxtail [1]; [4],100
same,"Foxtail, Giant plant response rating",giant foxtail [1]; [5],90
same,"Foxtail, Giant plant response rating",giant foxtail [1]; [6],100
same,"Plant response rating, Pigweed",redroot pigweed; [3],100
same,"Plant response rating, Pigweed",redroot pigweed; [4],100
same,Pigweed plant response rating,redroot pigweed; [5],100
same,Pigweed plant response rating,redroot pigweed; [6],100
same,"Plant response rating (0 = no effect, 100 = complete control), Bermudagrass","bermudagrass; 62 g ai/ha, preemergence",90
same,"Plant response rating, Bermudagrass",bermudagrass; [7],100
same,"Plant response rating, Bermudagrass",bermudagrass; [8],100
same,"Plant response rating, Bermudagrass",bermudagrass; [9],100
same,Bermudagrass plant response rating,bermudagrass; [10],100
same,"Plant response rating (0 = no effect, 100 = complete control), Crabgrass, Large","large crabgrass; 62 g ai/ha, preemergence",100
same,"Plant response rating, Crabgrass, Large",large crabgrass; [7],100
same,"Plant response rating, Crabgrass, Large",large crabgrass; [8],100
same,"Crabgrass, Large plant response rating","large crabgrass; Postemergence, scale 0 to 100",90
same,"Plant response rating, Crabgrass, Large",large crabgrass; [9],90
same,"Plant response rating, Crabgrass, Large",large crabgrass; [11],90
same,"Crabgrass, Large plant response rating",large crabgrass; [10],100
same,"Plant response rating (0 = no effect, 100 = complete control), Cupgrass, Woolly","woolly cupgrass; 62 g ai/ha, preemergence",10
same,"Plant response rating, Cupgrass, Woolly",woolly cupgrass; [7],10
same,"Plant response rating, Cupgrass, Woolly",woolly cupgrass; [8],30
same,"Cupgrass, Woolly plant response rating","woolly cupgrass; Postemergence, scale 0 to 100",70
same,"Plant response rating, Cupgrass, Woolly",woolly cupgrass; [9],60
same,"Plant response rating, Cupgrass, Woolly",woolly cupgrass; [11],70
same,"Cupgrass, Woolly plant response rating",woolly cupgrass; [10],80
same,"Plant response rating, Cupgrass, Woolly",woolly cupgrass; [12],40
same,"Plant response rating (0 = no effect, 100 = complete control), Foxtail, Giant","giant foxtail [2]; 62 g ai/ha, preemergence",10
same,"Plant response rating, Foxtail, Giant",giant foxtail [2]; [7],60
same,"Plant response rating, Foxtail, Giant",giant foxtail [2]; [8],100
same,"Foxtail, Giant plant response rating","giant foxtail [2]; Postemergence, scale 0 to 100",70
same,"Plant response rating, Foxtail, Giant",giant foxtail [2]; [9],60
same,"Plant response rating, Foxtail, Giant",giant foxtail [2]; [11],60
same,"Foxtail, Giant plant response rating",giant foxtail [2]; [10],100
same,"Plant response rating, Foxtail, Giant",giant foxtail [2]; [12],40
same,"Plant response rating (0 = no effect, 100 = complete control), Goosegrass","goosegrass; 62 g ai/ha, preemergence",60
same,"Plant response rating, Goosegrass",goosegrass; [7],90
same,"Plant response rating, Goosegrass",goosegrass; [8],100
same,Goosegrass plant response rating,"goosegrass; Postemergence, scale 0 to 100",80
same,"Plant response rating, Goosegrass",goosegrass; [9],50
same,"Plant response rating, Goosegrass",goosegrass; [11],50
same,Goosegrass plant response rating,goosegrass; [10],100
same,"Plant response rating, Goosegrass",goosegrass; [12],40
same,"Plant response rating (0 = no effect, 100 = complete control), Pigweed","pigweed; 62 g ai/ha, preemergence",20
same,"Plant response rating, Pigweed",pigweed; [7],100
same,"Plant response rating, Pigweed",pigweed; [8],100
same,Pigweed plant response rating,"pigweed; Postemergence, scale 0 to 100",100
same,"Plant response rating, Pigweed",pigweed; [11],100
same,Pigweed plant response rating,pigweed; [10],100
same,"Plant response rating, Pigweed",pigweed; [12],100
CCn1nc(C(C)(C)C)cc1C(=O)Nc1cccc(SC(F)(F)F)c1 [Compound 130],"Foxtail, Giant plant response rating",giant foxtail [1]; [3],10
same,"Plant response rating, Foxtail, Giant",giant foxtail [1]; [4],10
same,"Foxtail, Giant plant response rating",giant foxtail [1]; [5],50
same,"Foxtail, Giant plant response rating",giant foxtail [1]; [13],55
same,Pigweed plant response rating,redroot pigweed; [3],50
same,"Plant response rating, Pigweed",redroot pigweed; [4],65
same,Pigweed plant response rating,redroot pigweed; [13],65
same,Pigweed plant response rating,redroot pigweed; [14],35
same,"Plant response rating (0 = no effect, 100 = complete control), Bermudagrass","bermudagrass; 62 g ai/ha, preemergence",60
same,"Plant response rating, Bermudagrass",bermudagrass; [7],90
same,"Plant response rating, Bermudagrass",bermudagrass; [8],100
same,Bermudagrass plant response rating,"bermudagrass; Postemergence, scale 0 to 100",90
same,"Plant response rating, Bermudagrass",bermudagrass; [11],90
same,Bermudagrass plant response rating,bermudagrass; [10],100
same,"Plant response rating, Bermudagrass",bermudagrass; [15],85
same,"Plant response rating, Crabgrass, Large",large crabgrass; [7],90
same,"Plant response rating, Crabgrass, Large",large crabgrass; [8],95
same,"Crabgrass, Large plant response rating","large crabgrass; Postemergence, scale 0 to 100",90
same,"Plant response rating, Crabgrass, Large",large crabgrass; [11],20
same,"Crabgrass, Large plant response rating",large crabgrass; [10],95
same,"Plant response rating (0 = no effect, 100 = complete control), Cupgrass, Woolly","woolly cupgrass; 62 g ai/ha, preemergence",5
same,"Plant response rating, Cupgrass, Woolly",woolly cupgrass; [7],10
same,"Plant response rating, Cupgrass, Woolly",woolly cupgrass; [8],40
same,"Cupgrass, Woolly plant response rating","woolly cupgrass; Postemergence, scale 0 to 100",80
same,"Plant response rating, Cupgrass, Woolly",woolly cupgrass; [11],60
same,"Cupgrass, Woolly plant response rating",woolly cupgrass; [10],70
same,"Plant response rating, Cupgrass, Woolly",woolly cupgrass; [15],50
same,"Plant response rating (0 = no effect, 100 = complete control), Foxtail, Giant","giant foxtail [2]; 62 g ai/ha, preemergence",40
same,"Plant response rating, Foxtail, Giant",giant foxtail [2]; [7],45
same,"Plant response rating, Foxtail, Giant",giant foxtail [2]; [8],65
same,"Foxtail, Giant plant response rating","giant foxtail [2]; Postemergence, scale 0 to 100",30
same,"Plant response rating, Foxtail, Giant",giant foxtail [2]; [11],15
same,"Foxtail, Giant plant response rating",giant foxtail [2]; [10],95
same,"Plant response rating, Foxtail, Giant",giant foxtail [2]; [15],10
same,"Plant response rating (0 = no effect, 100 = complete control), Goosegrass","goosegrass; 62 g ai/ha, preemergence",10
same,"Plant response rating, Goosegrass",goosegrass; [7],20
same,Goosegrass plant response rating,"goosegrass; Postemergence, scale 0 to 100",60
same,"Plant response rating, Goosegrass",goosegrass; [11],60
same,Goosegrass plant response rating,goosegrass; [10],50
same,"Plant response rating, Goosegrass",goosegrass; [15],20
same,"Plant response rating (0 = no effect, 100 = complete control), Pigweed","pigweed; 62 g ai/ha, preemergence",80
same,"Plant response rating, Pigweed",pigweed; [7],90
same,Pigweed plant response rating,"pigweed; Postemergence, scale 0 to 100",100
same,"Plant response rating, Pigweed",pigweed; [11],100
same,Pigweed plant response rating,pigweed; [10],100
same,"Plant response rating, Pigweed",pigweed; [15],100
CCNC(=O)c1cccc(NC(=O)c2sc(C(C)(C)C)nc2C)c1 [Compound 198],"Foxtail, Giant plant response rating",giant foxtail [1]; [3],30
same,"Plant response rating, Foxtail, Giant",giant foxtail [1]; [4],65
same,"Foxtail, Giant plant response rating",giant foxtail [1]; [13],95
same,"Foxtail, Giant plant response rating",giant foxtail [1]; [14],90
same,Pigweed plant response rating,redroot pigweed; [3],55
same,"Plant response rating, Pigweed",redroot pigweed; [4],75
same,Pigweed plant response rating,redroot pigweed; [13],100
same,Pigweed plant response rating,redroot pigweed; [14],95
same,"Plant response rating, Bermudagrass","bermudagrass; 62 g ai/ha, preemergence, scale 0 to 100, 0 no effect, 100 complete control",60
same,"Plant response rating, Bermudagrass",bermudagrass; [7],85
same,"Plant response rating, Bermudagrass",bermudagrass; [16],100
same,Bermudagrass plant response rating,bermudagrass; [10],100
same,"Plant response rating, Crabgrass, Large",large crabgrass; [17],80
same,"Plant response rating, Crabgrass, Large",large crabgrass; [7],85
same,"Plant response rating, Crabgrass, Large",large crabgrass; [16],95
same,"Crabgrass, Large plant response rating",large crabgrass; [10],95
same,"Plant response rating, Cupgrass, Woolly",woolly cupgrass; [17],0
same,"Plant response rating, Cupgrass, Woolly",woolly cupgrass; [7],5
same,"Plant response rating, Cupgrass, Woolly",woolly cupgrass; [16],10
same,"Cupgrass, Woolly plant response rating",woolly cupgrass; [10],70
same,"Plant response rating, Foxtail, Giant",giant foxtail [2]; [17],0
same,"Plant response rating, Foxtail, Giant",giant foxtail [2]; [7],10
same,"Plant response rating, Foxtail, Giant",giant foxtail [2]; [16],60
same,"Foxtail, Giant plant response rating",giant foxtail [2]; [10],100
same,"Plant response rating, Goosegrass",goosegrass; [17],20
same,"Plant response rating, Goosegrass",goosegrass; [7],80
same,"Plant response rating, Goosegrass",goosegrass; [16],95
same,Goosegrass plant response rating,goosegrass; [10],100
same,"Plant response rating, Pigweed",pigweed; [17],100
same,"Plant response rating, Pigweed",pigweed; [7],100
same,"Plant response rating, Pigweed",pigweed; [16],100
same,Pigweed plant response rating,pigweed; [10],100
